As usually defined, the EC50 is the concentration needed to bring the measured effect to its halfway point. A lower EC50 goes with greater potency.

The results in this text go back to paper PMC12186257, “Serendipitous and Systematic Chemoproteomic Discovery of MBLAC2, HINT1, and NME1‑4 Inhibitors from Histone Deacetylase-Targeting Pharmacophores” (ACS Chemical Biology, 2025).

One experiment addresses T1, ALDH2 (Homo sapiens, UniProt P05091).
T1 construct: incubated at increasing concentrations with a mixture of lysates of MV4–11 and SW620 cells; endogenous in cells; host or cells: mixed lysate of MV4-11 and SW620 cells
T1 sequence (P05091 18-517): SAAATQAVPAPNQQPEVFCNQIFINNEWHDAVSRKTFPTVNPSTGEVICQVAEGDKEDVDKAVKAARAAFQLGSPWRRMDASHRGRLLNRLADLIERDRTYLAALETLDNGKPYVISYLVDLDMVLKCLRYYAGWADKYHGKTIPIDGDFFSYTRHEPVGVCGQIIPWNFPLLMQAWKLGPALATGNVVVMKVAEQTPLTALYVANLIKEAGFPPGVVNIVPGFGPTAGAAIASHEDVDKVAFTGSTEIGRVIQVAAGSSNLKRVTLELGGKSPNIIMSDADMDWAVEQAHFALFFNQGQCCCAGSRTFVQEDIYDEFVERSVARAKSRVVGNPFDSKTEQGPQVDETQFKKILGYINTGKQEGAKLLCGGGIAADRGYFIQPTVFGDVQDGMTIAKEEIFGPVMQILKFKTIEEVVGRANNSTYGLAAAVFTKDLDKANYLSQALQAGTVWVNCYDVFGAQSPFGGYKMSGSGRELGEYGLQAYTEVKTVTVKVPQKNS
As to the kind of experiment: chemoproteomic competition assay (MV4-11/SW620 lysate, iA/iC/iQ beads, MS readout). The conditions noted are these: nine-dose competition assay; range stated for ALDH2 and GATD3A together. It is filed as binding. The procedure: (§1) MBLAC2 is a metalloenzyme predicted to harbor one or two Zn^2+ ions in its active site. […] In this assay, compounds of interest are incubated at increasing concentrations with a mixture of lysates of MV4–11 and SW620 cells. The compound-treated lysates are then mixed with bead-immobilized hydroxamic acid-containing compounds iA, iC, and iQ (immobilized Quisinostat), which pull down compound-binding proteins such as HDACs, MBLAC2, ISOC1/2, ALDH2, and GATD3A (Figure a) that can be identified and quantified by mass spectrometry (MS). Proteins targeted by the library compounds in a preincubation step are prevented from being pulled down by the immobilized probes, leading to a dose-dependent reduction in MS signal. Initially, 12 metal-chelating compounds were profiled at two concentrations (10 μM and 100 μM) (Figure S3).
(§2) Chemoproteomic competition assays
(§3) Sample preparation. […]
(§4) LC-MS/MS. The different sample types were measured with different LC-MS/MS settings. MBLAC2 2-dose competition assays were measured with the Lumos1 setup, MBLAC2 9-dose competition assays were measured with the Lumos2 setup, and kinobeads assays were measured with the Eclipse setup.
(§5) Peptides were analyzed via LC–MS/MS on a Dionex Ultimate3000 nano HPLC coupled to either one of two Orbitrap Fusion Lumos mass spectrometers, or to an Orbitrap Eclipse mass spectrometer, operated via the Thermo Scientific Xcalibur software. […]
(§6) In Lumos settings, up to 12 peptide precursors were isolated in (isolation width of 1.2 Th for Lumos1 and 1.7 for Lumos2, maximum injection time of 75 ms, AGC value of 1e5 for Lumos1 and 2e5 for Lumos2), fragmented by HCD using 30% normalized collision energy (NCE) and analyzed in the Orbitrap at a resolution of 15,000 (Lumos2) or 30,000 (Lumos1). […] Peptides were isolated in the quadrupole with an isolation offset of 1.2 (isolation width of 1.2 Th, maximum injection time of 54 ms, AGC target of 200%) and fragmented by HCD with an NCE of 30% and analyzed in the Orbitrap at a resolution of 30,000. […]

The next experiment deals with T2, GATD3A (Homo sapiens, UniProt P0DPI2).
T2 construct: incubated at increasing concentrations with a mixture of lysates of MV4–11 and SW620 cells; endogenous in cells; host or cells: mixed lysate of MV4-11 and SW620 cells
T2 sequence (P0DPI2 42-268): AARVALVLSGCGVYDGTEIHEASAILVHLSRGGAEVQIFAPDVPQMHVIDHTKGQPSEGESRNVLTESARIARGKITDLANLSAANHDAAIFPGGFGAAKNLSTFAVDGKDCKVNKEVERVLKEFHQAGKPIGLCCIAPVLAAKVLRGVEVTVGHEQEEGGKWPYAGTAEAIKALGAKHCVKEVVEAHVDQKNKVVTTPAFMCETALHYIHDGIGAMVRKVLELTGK
The experiment is described as above. The class given is binding. The conditions noted are these: nine-dose competition assay; range stated for ALDH2 and GATD3A together. On the procedure:
as §1, §2, §3, §4, §5, §6

As for `CC(C)Cc1ccc(C(C)C(=O)NO)cc1` (centres unmarked) [Ibuproxam], the EC50 on ALDH2 and at GATD3A was 23 to 30 µM throughout.
